Data as given in publication PMC8151276, “An Integrated Approach toward NanoBRET Tracers for Analysis of GPCR Ligand Engagement” (Molecules, 2021).
One block for each compound: values may come before it.

Assays:
LGR4 = target: T1, LGR4 (Homo sapiens, UniProt Q9BXB1); experiment: NanoBRET screen HiBiT-LGR4 in HEK293; format: binding
T1 construct: purchased Promega (in-house HiBiT-GPCR construct library, NanoBRET)
T1 sequence (Q9BXB1 25-951): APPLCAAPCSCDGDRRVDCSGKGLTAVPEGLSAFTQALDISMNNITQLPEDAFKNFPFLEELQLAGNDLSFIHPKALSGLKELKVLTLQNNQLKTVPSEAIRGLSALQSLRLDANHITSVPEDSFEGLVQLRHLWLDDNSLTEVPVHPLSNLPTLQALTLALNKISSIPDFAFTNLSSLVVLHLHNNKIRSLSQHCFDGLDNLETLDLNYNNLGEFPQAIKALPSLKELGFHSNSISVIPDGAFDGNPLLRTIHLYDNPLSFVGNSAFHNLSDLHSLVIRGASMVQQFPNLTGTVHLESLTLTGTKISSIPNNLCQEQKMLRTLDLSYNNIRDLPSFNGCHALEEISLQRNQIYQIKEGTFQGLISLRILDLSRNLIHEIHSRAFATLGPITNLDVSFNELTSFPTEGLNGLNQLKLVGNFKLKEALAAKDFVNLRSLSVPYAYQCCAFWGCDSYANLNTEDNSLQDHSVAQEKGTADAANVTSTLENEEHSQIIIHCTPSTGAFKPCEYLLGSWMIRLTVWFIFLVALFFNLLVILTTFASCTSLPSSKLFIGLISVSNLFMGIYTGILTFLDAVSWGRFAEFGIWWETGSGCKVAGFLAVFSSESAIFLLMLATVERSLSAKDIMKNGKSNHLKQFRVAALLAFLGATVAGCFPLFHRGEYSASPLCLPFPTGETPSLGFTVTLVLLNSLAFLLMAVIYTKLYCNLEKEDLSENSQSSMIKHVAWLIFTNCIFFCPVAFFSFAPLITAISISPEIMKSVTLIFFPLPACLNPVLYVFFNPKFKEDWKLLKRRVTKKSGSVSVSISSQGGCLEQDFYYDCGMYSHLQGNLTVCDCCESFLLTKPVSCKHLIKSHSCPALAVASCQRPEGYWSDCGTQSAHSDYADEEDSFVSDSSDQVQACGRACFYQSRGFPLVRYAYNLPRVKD
Experimental: (§1) Each tracer candidate was screened across the entire library of HiBiT-GPCR constructs using NanoBRET as the detection modality. As depicted in Figure 4A, the specificity of interactions was evaluated through decrease in BRET due to competitive displacement of a bound tracer by excess parental compound. Each tracer was analyzed for binding to each HiBiT-GPCR fusion in the absence and in the presence of competing parental compound. Briefly, HEK293 cells were transfected with HiBiT-GPCR constructs diluted into promoterless DNA to reduce expression and maximize translocation to the cell surface. Each tracer candidate was then screened at concentrations of 1 μM and 0.1 μM across cells expressing these fusions. Cells were treated for 1.5 h with tracer either alone or in the presence of 20 μM competing parental compound (i.e., control). BRET was measured upon addition of purified LgBiT and subsequent complementation with HiBiT genetically fused to a GPCR. The specificity of interactions was assessed through a decrease in BRET signal due to competitive displacement of the bound tracer. To further gauge the robustness of these interactions, the fold response over the control (i.e., BRETtracer/BRETcontrol) was calculated. We chose a 1.5-fold response, which translates to ≥7-fold signal over noise as the minimal threshold required to score an interaction as positive. […]. Below we highlight the screening results obtained for our exemplary fluorescent tracers based on Clozapine, Amitriptyline and AZD1283.
(§2) HiBiT-GPCR DNA constructs were diluted in 10 mM Tris pH 8 to a final concentration of 0.01 μg/μL, arrayed in 96-well plates and stored at −20 °C. For transfection, HEK293 cells were suspended in Opti-MEM (without phenol red) supplemented with 2% fetal bovine serum (Seradigm) and 100 units/mL penicillin–streptomycin (Gibco) at a final concentration of 220,000 cells/mL and dispensed into white 96-well plates at 90 μL/well. Subsequent transfections and screens were carried using an Agilent Bravo Automated Liquid Handling Platform. First, the 96-well HiBiT DNA arrays were diluted 25-fold in Opti-MEM (without serum or phenol red) to a final concentration of 0.0004 μg/μL and 20 μL of the diluted DNAs were transferred into new 96-well plates. Next, promoterless carrier DNA (1 μg/μL) was diluted 25-fold (0.04 μg/μL) and then dispensed into the diluted arrays at 20 μL/well. Following brief mixing, Viafect transfection reagent (Promega) diluted 16-fold into Opti-MEM was dispensed into the plates at 40 μL/well. After mixing by pipetting, plates were incubated for 10 min on the pipetting station deck. The DNA-transfection reagent complexes were then added to plates containing cells. To facilitate the screen, 10 μL of DNA-transfection reagent complexes were added in duplicates to the top 4 and bottom 4 rows, resulting in two identical 48-well arrays per plate. Plates with transfected cells were incubated for 18–20 h at 37 °C/5% CO2. A screen of each tracer across the entire library using two different concentrations requires duplicate plates of transfected cells. Depending on the number of tracers being screened, transfections can be scaled up using the same ratios. The next day, for each tracer, four 20× screening solutions in tracer dilution buffer (Promega) were prepared: two duplicates at final concentration of 20 μM and two duplicates at a final concentration of 2 μM. A competing unmodified compound was added to one of each duplicate at a final concentration of 400 μM. The four resulting solutions were diluted 4-fold in Opti-MEM without serum or phenol red to generate 5× solutions (5 µM and 0.5 µM tracer +/− 100 μM competing compound). To screen the library, a BioTek MultiFlo FX liquid dispenser was used to dispense 22.5 µL of tracer solution to the top 4 rows and 22.5 µL tracer + competing compound solution to the 4 bottom rows. Plates were briefly mixed on an orbital shaker and incubated for 1.5 h at room temperature. […]

GALR2 = target: T2, GALR2 (Homo sapiens, UniProt O43603); experiment: NanoBRET screen HiBiT-GALR2 in HEK293; format: binding
T2 construct: purchased Promega (in-house HiBiT-GPCR construct library, NanoBRET)
T2 sequence (O43603 1-387): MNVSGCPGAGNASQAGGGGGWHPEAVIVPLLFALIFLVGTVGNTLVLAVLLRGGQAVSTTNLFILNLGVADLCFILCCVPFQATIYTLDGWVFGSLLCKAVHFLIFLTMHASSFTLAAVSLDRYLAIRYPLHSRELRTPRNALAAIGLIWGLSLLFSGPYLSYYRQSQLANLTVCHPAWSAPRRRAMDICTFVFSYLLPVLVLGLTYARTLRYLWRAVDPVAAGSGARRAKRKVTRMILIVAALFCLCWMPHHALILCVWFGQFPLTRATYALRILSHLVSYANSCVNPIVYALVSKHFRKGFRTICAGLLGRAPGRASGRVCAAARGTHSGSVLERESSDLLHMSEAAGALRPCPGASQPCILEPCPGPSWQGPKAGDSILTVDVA
Experimental: as §1, §2

Compound: Cc1cc2c(s1)Nc1ccccc1N=C2N1CCN(CCCNC(=O)CCOCCOCCOCCOCCNC(=O)CCc2ccc3n2[B-](F)(F)[N+]2=C(c4ccc[nH]4)C=CC2=C3)CC1 [Olanzapine-a-2-NB590]
NanoBRET Fold Response (LGR4; LGR4, tracer 0.1μM): 0.98 | NanoBRET Fold Response (LGR4; LGR4, tracer 1μM): 1.30 | NanoBRET Fold Response (GALR2; GALR2, tracer 0.1μM): 0.96 | NanoBRET Fold Response (GALR2; GALR2, tracer 1μM): 1.07

Compound: CN1CCN(C2=Nc3cc(Cl)ccc3Nc3ccc(CNC(=O)CCOCCOCCOCCOCCNC(=O)CCc4ccc5n4[B-](F)(F)[N+]4=C(c6ccc[nH]6)C=CC4=C5)cc32)CC1 [Clozapine-b-2-NB590]
NanoBRET Fold Response (LGR4; LGR4, 0.1μM tracer): 1.00 | NanoBRET Fold Response (LGR4; LGR4, 1μM tracer): 1.04 | NanoBRET Fold Response (GALR2; GALR2, 0.1μM tracer): 0.93 | NanoBRET Fold Response (GALR2; GALR2, 1μM tracer): 0.99

NanoBRET Fold Response (LGR4; 0.1μM tracer): 1.20 | NanoBRET Fold Response (LGR4; 1μM tracer): 0.99 | NanoBRET Fold Response (GALR2; 0.1μM tracer): 0.91 | NanoBRET Fold Response (GALR2; 1μM tracer): 1.23
Compound: COc1ccc2c(n1)c(CCNC(C)=O)cn2CCNC(=O)CCc1ccc2n1[B-](F)(F)[N+]1=C(c3ccc[nH]3)C=CC1=C2 [Azamelatonin-1-NB590]

Compound: O=C(CCc1ccc2n1[B-](F)(F)[N+]1=C(c3ccc[nH]3)C=CC1=C2)NCc1ccc(C(=O)NCCOCCOCCNCC(O)COc2cccc3ccccc23)cc1 (centres unmarked) [Propranolol-3-NB590]
NanoBRET Fold Response (LGR4; LGR4, 0.1μM): 0.97 | NanoBRET Fold Response (LGR4; LGR4, 1μM): 1.02 | NanoBRET Fold Response (GALR2; GALR2, 0.1μM): 1.00 | NanoBRET Fold Response (GALR2; GALR2, 1μM): 0.99

NanoBRET Fold Response (LGR4; LGR4, 0.1μM tracer): 1.02 | NanoBRET Fold Response (LGR4; LGR4, 1μM tracer): 0.99 | NanoBRET Fold Response (GALR2; GALR2, 0.1μM tracer): 1.09 | NanoBRET Fold Response (GALR2; GALR2, 1μM tracer): 1.19
Compound: O=C(CCOCCOCCOCCOCCNC(=O)CCc1ccc2n1[B-](F)(F)[N+]1=C(c3ccc[nH]3)C=CC1=C2)NCCCN1CCN(C2=Nc3cc(Cl)ccc3Nc3ccccc32)CC1 [Clozapine-a-2-NB590]
